Each structure is given as a SMILES string.

One test deals with T1, GABAA receptor α1β2γ2 (Homo sapiens, UniProt P14867+P18507).
T1 construct: expressed in transfected cells; host or cells: Xenopus laevis oocytes injected with cRNA
The experiment in a line: Two-electrode voltage-clamp potentiation of GABA EC10 current in Xenopus oocytes, GABAA1. Format: cell-based. The conditions noted are these: percentage potentiation of GABA EC10 current divided by that of diazepam. Here is the method:
GABAA receptors were heterologously expressed in Xenopus oocytes by injecting cRNA corresponding to human α1, α2, α3, α5, β2, P3 and γ2 subunits of the GABAA receptor genes. The specific subunit combinations (subtypes) were as follows: α1β2γ2, α2β3γ2, α3β3γ2, and α5β3γ2. The EC10 of GABA is approximated for each cell. Stability of GABA-mediated (EC10) current is established. Modulatory effect of test compound is determined and compared across subtypes. […] Thus, the assay can characterize modulatory effects and determine subtype selectivity of test compounds on major subtypes of GABAA receptors.
Xenopus laevis frogs (Xenopus I, Kalamazoo, Mich.) were anesthetized using 0.15% tricaine. Surgically removed ovarian lobes were teased out in OR2 solution (82 NaCl, 2.5 KCl, 5 HEPES, 1.5 NaH2PO4, 1 MgCl2, 0.1 EDTA, in mM, pH 7.4). The oocytes were defolliculated by incubation in 25 mL OR2 containing 0.2% collagenase 1A (SIGMA) two times for about 60 minutes on a platform shaker and stored in Leibovitz's L-15 medium. Oocytes were injected the following day in 0.5× Leibovitz's L-15 medium containing […] gentamycin, 10 units/ml penicillin, and […] streptomycin.
Capped cRNAs from the linearized vectors containing human α1, β2 and γ2 subunits of the GABAA receptor genes were mixed in ratio of […]. Oocytes were injected with 25-50 nL of mixed RNA with an appx molar ratio for α1, β2, and γ2 as 1:1:10. Oocyte recordings were done 2-10 days after injection. The same methods apply to subtypes derived from α2β3γ2, α3β3γ2, and α5β3γ2, except for 1:1:1 ratio was used for α, β, and γ subunits.
All measurements were done in a medium containing ND-96 (96 NaCl, 2 KCl, 1.8 CaCl2.2H2O, 1 MgCl2.6H2O, 5 HEPES, in mM, pH 7.5). Two-electrode voltage-clamp recording was carried out using OpusXpress amplifier (Axon Instruments, Foster City, Calif.), which allows simultaneous recording from 8 oocytes. Oocytes were impaled with two electrodes of 1-2 MΩ tip resistance when filled with 3M KCl. Recordings were begun when membrane potential became stable at potentials negative to −50-−60 mV. Membrane potential was held at −60 mV. […] The concentration of GABA corresponded to the EC10 value calculated for each oocyte. The modulator pulses started 30 s before the GABA pulse so as to allow preincubation with the modulator. A set of 3 pulses with just GABA without modulator was given prior to the modulator-containing pulses to define the baseline GABA response. Two oocytes per each experiment were dedicated to observe the effect of diazepam on GABA response to ensure the presence of γ2 subunit in the GABAA pentameric complex, which imparts diazepam sensitivity to the complex.
Current amplitude (i) was measured from baseline to peak using Clampfit (Axon Inst., Foster City, Calif.). Potentiation was calculated as percent change from the baseline GABA current flux 100×(imod/icontrol)−1) where imod=current mediated by modulator+GABA and icontrol=current mediated by GABA alone. […] Similarly, a value of −50% potentiation means the presence of modulator caused a 50% decrease in the control current. Various other data shown here were fitted and plotted using GraphPad Prism (GraphPad Software, Inc. San Diego, Calif.). The percentage potentiation was converted to relative potentiation by dividing it with percentage potentiation value obtained from the same assay with diazepam as a control.
A general note: Two-electrode voltage clamp holds a large cell at a set potential and records current.

Test [1] has as its target T2, GABAA2 receptors (α2, β3, γ2 receptor subunits transfected into Sf9 cells) (Homo sapiens, UniProt P18507+P47869).
T2 construct: host or cells: Sf9 cells (membranes)
Nature of the test: GABAA2 Binding Method ([3H]-Flunitrazepam displacement). The conditions noted are these: [3H]-Flunitrazepam ~2 nM, α2β3γ2 Sf9 membranes, 1 hr at 4° C. Here is the method: In some embodiments, the binding test is directed to a subtype of GABAA receptors, such as GABAA1 receptors (i.e., those containing the α1 subunit), GABAA2 receptors (i.e., those containing the α2 subunit), GABAA3 receptors (i.e., those containing the α3 subunit) and GABAA5 receptors (i.e., those containing the α5 subunit).
[^3H]-Flunitrazepam (Cat #NET567): Prepare 10× stock=20 nM, [F} in assay=˜2 nM
1. […] Add 5 ul of 30 uM flumazenil to wells 12 D-E for 50% control wells.
5. Add 25 μl [^3H]-Flunitrazepam (Automation Program 6). Incubate for 1 hr at 4° C.
6. Collect membranes on a cell harvester onto GF/B filter plates (pre-wet with dH2O and wash 5×400 μl/well, with cold assay buffer. (First 3 washes are considered hot; last two are cold.)
Data is analyzed by calculating percent of control, IC50, and Ki in an XLfit template. The following formula is used in the templates: […]

T2 sequence (P47869 29-451): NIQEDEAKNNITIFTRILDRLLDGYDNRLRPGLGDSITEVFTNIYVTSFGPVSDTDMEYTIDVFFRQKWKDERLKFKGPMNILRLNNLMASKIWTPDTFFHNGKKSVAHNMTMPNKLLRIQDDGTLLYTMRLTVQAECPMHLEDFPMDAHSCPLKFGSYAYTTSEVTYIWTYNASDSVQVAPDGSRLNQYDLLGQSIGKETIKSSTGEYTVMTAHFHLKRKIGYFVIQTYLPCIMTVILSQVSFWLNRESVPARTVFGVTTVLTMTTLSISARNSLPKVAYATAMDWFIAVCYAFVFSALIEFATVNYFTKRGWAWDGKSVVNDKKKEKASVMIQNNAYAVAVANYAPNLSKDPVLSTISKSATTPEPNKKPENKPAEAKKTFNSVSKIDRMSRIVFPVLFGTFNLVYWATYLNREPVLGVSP
T2 sequence (P28472 26-473 partner): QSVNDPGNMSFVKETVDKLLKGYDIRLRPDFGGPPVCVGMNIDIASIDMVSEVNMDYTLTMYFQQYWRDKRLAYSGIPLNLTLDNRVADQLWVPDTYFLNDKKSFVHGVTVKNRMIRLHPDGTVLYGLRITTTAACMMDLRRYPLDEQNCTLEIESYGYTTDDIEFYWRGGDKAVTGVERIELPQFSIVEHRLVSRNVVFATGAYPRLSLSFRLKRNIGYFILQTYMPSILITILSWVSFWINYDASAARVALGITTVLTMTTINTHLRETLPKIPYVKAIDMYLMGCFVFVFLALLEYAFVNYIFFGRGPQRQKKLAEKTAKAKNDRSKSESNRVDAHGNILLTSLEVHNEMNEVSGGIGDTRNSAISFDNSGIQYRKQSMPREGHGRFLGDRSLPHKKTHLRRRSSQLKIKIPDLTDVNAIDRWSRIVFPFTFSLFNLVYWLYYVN
T2 sequence (P18507 40-475): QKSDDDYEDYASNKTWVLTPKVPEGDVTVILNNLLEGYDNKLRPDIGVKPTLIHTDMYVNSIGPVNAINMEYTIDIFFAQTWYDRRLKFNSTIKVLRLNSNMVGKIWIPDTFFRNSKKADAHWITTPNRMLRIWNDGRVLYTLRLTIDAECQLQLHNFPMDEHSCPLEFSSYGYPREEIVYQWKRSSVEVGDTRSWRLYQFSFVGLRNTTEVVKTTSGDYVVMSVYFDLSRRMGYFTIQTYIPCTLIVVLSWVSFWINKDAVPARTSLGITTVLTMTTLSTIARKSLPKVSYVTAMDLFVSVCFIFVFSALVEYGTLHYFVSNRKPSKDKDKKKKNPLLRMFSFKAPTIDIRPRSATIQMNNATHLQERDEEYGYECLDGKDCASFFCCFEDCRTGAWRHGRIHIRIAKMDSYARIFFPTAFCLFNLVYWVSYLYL
T1 sequence (P14867 28-456): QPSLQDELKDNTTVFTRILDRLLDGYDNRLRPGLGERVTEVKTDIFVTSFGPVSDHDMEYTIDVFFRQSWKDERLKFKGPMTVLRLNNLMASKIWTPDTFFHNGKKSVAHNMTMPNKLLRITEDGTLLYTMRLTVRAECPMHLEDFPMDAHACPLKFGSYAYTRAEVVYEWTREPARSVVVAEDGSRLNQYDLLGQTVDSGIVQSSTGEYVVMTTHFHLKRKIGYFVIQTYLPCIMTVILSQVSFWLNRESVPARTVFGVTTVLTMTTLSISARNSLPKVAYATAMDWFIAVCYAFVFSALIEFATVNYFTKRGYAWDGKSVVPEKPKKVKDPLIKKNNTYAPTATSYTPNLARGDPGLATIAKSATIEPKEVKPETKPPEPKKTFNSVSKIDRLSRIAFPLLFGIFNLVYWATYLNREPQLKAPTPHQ
T1 sequence (P47870 25-512 partner limits assumed): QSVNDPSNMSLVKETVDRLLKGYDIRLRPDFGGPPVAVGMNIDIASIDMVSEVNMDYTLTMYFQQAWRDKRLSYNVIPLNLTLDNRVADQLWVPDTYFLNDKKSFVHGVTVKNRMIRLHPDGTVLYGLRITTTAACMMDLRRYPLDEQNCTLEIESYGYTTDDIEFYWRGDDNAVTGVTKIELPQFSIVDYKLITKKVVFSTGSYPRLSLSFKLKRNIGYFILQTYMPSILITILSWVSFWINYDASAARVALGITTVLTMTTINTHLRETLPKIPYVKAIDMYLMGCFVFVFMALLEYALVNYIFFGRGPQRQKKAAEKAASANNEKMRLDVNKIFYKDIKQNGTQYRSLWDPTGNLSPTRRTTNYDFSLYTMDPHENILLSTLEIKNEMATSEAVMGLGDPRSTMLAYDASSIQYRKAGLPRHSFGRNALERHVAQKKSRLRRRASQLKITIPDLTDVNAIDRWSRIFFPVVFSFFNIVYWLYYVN
T1 sequence (P18507 40-475): as the sequence (P18507 40-475) above

For the compound `COc1ccc(CN2Cc3nc4c(-c5ccc(OC)c(OC)c5)cccc4c(N)c3C2=O)cc1`, the “Relative Potentiation for GABAA1” value on GABAA receptor α1β2γ2 is on record as 0.61. Moreover, affinity in test [1] was put at a Ki of 47.7 nM.

Regarding `CCCN1Cc2nc3c(-c4cccc(C#N)c4)cccc3c(N)c2C1=O` [3-(9-amino-1-oxo-2-propyl-2,3-dihydro-1H-pyrrolo[3,4-b]quinolin-5-yl)benzonitrile], the “Relative Potentiation for GABAA1” value at GABAA receptor α1β2γ2 was 0.54. Moreover, the Ki in test [1] was 21.2 nM.

Turning to `CCCN1Cc2nc3c(-c4cncc(C#N)c4)cccc3c(N)c2C1=O` [5-(9-amino-1-oxo-2-propyl-2,3-dihydro-1H-pyrrolo[3,4-b]quinolin-5-yl)nicotinonitrile], the “Relative Potentiation for GABAA1” value at GABAA receptor α1β2γ2 turned out to be 0.26. The compound also registered a Ki in test [1] of 64.9 nM.

With `COc1ccc(CN2Cc3nc4c(-c5ccc(C)nc5C)cccc4c(N)c3C2=O)cc1OC` [9-amino-2-(3,4-dimethoxybenzyl)-5-(2,6-dimethylpyridin-3-yl)-2,3-dihydro-1H-pyrrolo[3,4-b]quinolin-1-one], the “Relative Potentiation for GABAA1” value at GABAA receptor α1β2γ2 is recorded as 0.21. Further, in test [1], the inhibitory constant (Ki) was 2.7 nM.

Consider `COc1ccc(CN2Cc3nc4c(-c5cc(C)ccc5OC)cccc4c(N)c3C2=O)cc1OC` [9-amino-2-(3,4-dimethoxybenzyl)-5-(2-methoxy-5-methylphenyl)-2,3-dihydro-1H-pyrrolo[3,4-b]quinolin-1-one], for which, on GABAA receptor α1β2γ2, the “Relative Potentiation for GABAA1” value is on record as 0.3. For the same compound, the inhibition constant (Ki) in test [1] came out at 9.18 nM.

For `COc1ccc(CN2Cc3nc4c(-c5cccnc5OC)cccc4c(N)c3C2=O)cc1OC` [9-amino-2-(3,4-dimethoxybenzyl)-5-(2-methoxypyridin-3-yl)-2,3-dihydro-1H-pyrrolo[3,4-b]quinolin-1-one], on GABAA receptor α1β2γ2, the “Relative Potentiation for GABAA1” value worked out at 0.12. For the same compound, in test [1], the inhibition constant Ki was found to be 2.3 nM.

As for `COc1ccc(-c2cccc3c(N)c4c(nc23)CN(Cc2ccc(OC)c(OC)c2)C4=O)c(C)n1` [9-amino-2-(3,4-dimethoxybenzyl)-5-(6-methoxy-2-methylpyridin-3-yl)-2,3-dihydro-1H-pyrrolo[3,4-b]quinolin-1-one], the “Relative Potentiation for GABAA1” value at GABAA receptor α1β2γ2 is reported as 0.26. Also, the affinity in test [1], expressed as Ki, was 4.7 nM.

Turning to `COc1ccc(CN2Cc3nc4c(-c5cccnc5OC)cccc4c(N)c3C2=O)cc1Cl` [9-amino-2-(3-chloro-4-methoxybenzyl)-5-(2-methoxypyridin-3-yl)-2,3-dihydro-1H-pyrrolo[3,4-b]quinolin-1-one], the “Relative Potentiation for GABAA1” value on GABAA receptor α1β2γ2 is 0.25. In test [1], this compound came in with an inhibition constant (Ki) of 9.89 nM.

On to `COc1ccc(CN2Cc3nc4c(-c5cncc(OC)c5)cccc4c(N)c3C2=O)cc1` [9-amino-2-(4-methoxybenzyl)-5-(5-methoxypyridin-3-yl)-2,3-dihydro-1H-pyrrolo[3,4-b]quinolin-1-one], for which the “Relative Potentiation for GABAA1” value on GABAA receptor α1β2γ2 is on record as 0.22. The affinity in test [1] corresponds to a Ki of 6.09 nM.

`COc1ncc(-c2cccc3c(N)c4c(nc23)CN(Cc2ccc3c(c2)OCO3)C4=O)c(OC)n1` [9-amino-2-(benzo[d][1,3]dioxol-5-ylmethyl)-5-(2,4-dimethoxypyrimidin-5-yl)-2,3-dihydro-1H-pyrrolo[3,4-b]quinolin-1-one]: the “Relative Potentiation for GABAA1” value on GABAA receptor α1β2γ2 worked out at 0.4. In test [1], this compound displayed a Ki of 30.2 nM.

For `COc1ccc(OC)c(-c2cccc3c(N)c4c(nc23)CN(Cc2ccc3c(c2)OCO3)C4=O)c1` [9-amino-2-(benzo[d][1,3]dioxol-5-ylmethyl)-5-(2,5-dimethoxyphenyl)-2,3-dihydro-1H-pyrrolo[3,4-b]quinolin-1-one], on GABAA receptor α1β2γ2, the “Relative Potentiation for GABAA1” value is 0.33. In addition, the affinity in test [1] corresponds to a Ki of 60.6 nM.

For `COc1ncccc1-c1cccc2c(N)c3c(nc12)CN(Cc1ccc2c(c1)OCO2)C3=O` [9-amino-2-(benzo[d][1,3]dioxol-5-ylmethyl)-5-(2-methoxypyridin-3-yl)-2,3-dihydro-1H-pyrrolo[3,4-b]quinolin-1-one], the “Relative Potentiation for GABAA1” value at GABAA receptor α1β2γ2 is given as 0.24. Besides, the affinity in test [1], expressed as Ki, was 5.78 nM.

For `COc1ccncc1-c1cccc2c(N)c3c(nc12)CN(Cc1ccc2c(c1)OCO2)C3=O` [9-amino-2-(benzo[d][1,3]dioxol-5-ylmethyl)-5-(4-methoxypyridin-3-yl)-2,3-dihydro-1H-pyrrolo[3,4-b]quinolin-1-one], on GABAA receptor α1β2γ2, the “Relative Potentiation for GABAA1” value was determined as 0.28. In test [1], this compound returned a Ki of 2.19 nM.

For the compound `CCCCN1Cc2nc3c(-c4c(F)cccc4OC)cccc3c(N)c2C1=O` [9-amino-2-butyl-5-(2-fluoro-6-methoxyphenyl)-2,3-dihydro-1H-pyrrolo[3,4-b]quinolin-1-one], the “Relative Potentiation for GABAA1” value at GABAA receptor α1β2γ2 stood at 0.25. This compound also showed a Ki in test [1] of 4.62 nM.

Consider `CCCCN1Cc2nc3c(-c4cc(C)ccc4OC)cccc3c(N)c2C1=O` [9-amino-2-butyl-5-(2-methoxy-5-methylphenyl)-2,3-dihydro-1H-pyrrolo[3,4-b]quinolin-1-one], for which the “Relative Potentiation for GABAA1” value at GABAA receptor α1β2γ2 turned out to be 0.56. Affinity in test [1] was put at a Ki of 21.3 nM.

For the compound `CCCCN1Cc2nc3c(-c4cccnc4OC)cccc3c(N)c2C1=O` [9-amino-2-butyl-5-(2-methoxypyridin-3-yl)-2,3-dihydro-1H-pyrrolo[3,4-b]quinolin-1-one], on GABAA receptor α1β2γ2, the “Relative Potentiation for GABAA1” value is 0.5. This compound also gave a Ki in test [1] of 19.7 nM.

For the compound `Nc1c2c(nc3c(-c4cc(Cl)ccc4Cl)cccc13)CN(C1CCC1)C2=O` [9-amino-2-cyclobutyl-5-(2,5-dichlorophenyl)-2,3-dihydro-1H-pyrrolo[3,4-b]quinolin-1-one], at GABAA receptor α1β2γ2, the “Relative Potentiation for GABAA1” value is recorded as 0.16. This compound gave a Ki in test [1] of 3.15 nM.

`COc1ccc(C)cc1-c1cccc2c(N)c3c(nc12)CN(C1CCC1)C3=O` [9-amino-2-cyclobutyl-5-(2-methoxy-5-methylphenyl)-2,3-dihydro-1H-pyrrolo[3,4-b]quinolin-1-one]: the “Relative Potentiation for GABAA1” value at GABAA receptor α1β2γ2 is listed as 0.19. For the same compound, the affinity in test [1], expressed as Ki, was 4.07 nM.

Regarding `Nc1c2c(nc3c(-c4ccccc4C(F)(F)F)cccc13)CN(C1CC1)C2=O` [9-amino-2-cyclopropyl-5-(2-(trifluoromethyl)phenyl)-2,3-dihydro-1H-pyrrolo[3,4-b]quinolin-1-one], at GABAA receptor α1β2γ2, the “Relative Potentiation for GABAA1” value is 0.48. The compound further registered an inhibition constant Ki in test [1] of 22.7 nM.

Regarding `COc1ccc(C)cc1-c1cccc2c(N)c3c(nc12)CN(C1CC1)C3=O` [9-amino-2-cyclopropyl-5-(2-methoxy-5-methylphenyl)-2,3-dihydro-1H-pyrrolo[3,4-b]quinolin-1-one], the “Relative Potentiation for GABAA1” value on GABAA receptor α1β2γ2 is listed as 0.28. The compound further returned an inhibition constant Ki in test [1] of 4.76 nM.

`COc1ccc(-c2cccc3c(N)c4c(nc23)CN(C2CC2)C4=O)c(C(F)(F)F)c1` [9-amino-2-cyclopropyl-5-(4-methoxy-2-(trifluoromethyl)phenyl)-2,3-dihydro-1H-pyrrolo[3,4-b]quinolin-1-one]: the “Relative Potentiation for GABAA1” value on GABAA receptor α1β2γ2 came out at 0.5. This compound also displayed an inhibition constant (Ki) in test [1] of 31.9 nM.

Consider `COc1ccncc1-c1cccc2c(N)c3c(nc12)CN(C1CC1)C3=O` [9-amino-2-cyclopropyl-5-(4-methoxypyridin-3-yl)-2,3-dihydro-1H-pyrrolo[3,4-b]quinolin-1-one], for which the “Relative Potentiation for GABAA1” value at GABAA receptor α1β2γ2 worked out at 0.21. Besides, the Ki in test [1] worked out at 8.1 nM.

What is called Ki is the dissociation constant of the complex between target and ligand, obtained from inhibition or displacement. Low readings indicate higher affinity, high ones lower affinity.

Values taken from patent US20080318943A1, “Compounds and Uses Thereof - 848” (ASTRAZENECA AB, priority 2007, published 2008).
